Reference: the supplement of paper PMC11061612

Legend:
AZD1775 = compound: C=CCn1c(=O)c2cnc(Nc3ccc(N4CCN(C)CC4)cc3)nc2n1-c1cccc(C(C)(C)O)n1 [AZD1775]; conditions: max 3 µM
Summary of the method: (§1)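 Viability was measured with CellTiter-Glo 2.0 luminescence after 72 hours of dosing at a final DMSO of typically 0.2%, and scaled between blank-well and DMSO-well means. Beforehand, cancer cell lines sat 24 hours at 37°C and 5% CO2 in 1536-well plates in 7.5 μl DMEM/F12 or RPMI with 10% FBS. A non-linear mixed effects model fitted two-parameter logistic curves to the dose responses. The single-agent IC50 comes from these fits.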

Capivasertib = compound: C1CN(CCC1(C(=O)N[C@@H](CCO)C2=CC=C(C=C2)Cl)N)C3=NC=NC4=C3C=CN4 [Capivasertib]; conditions: max 3 µM
Summary of the method: as §1

AZD0156 = compound: CN(C)CCCOc1ccc(-c2ccc3ncc4c(c3c2)n(C2CCOCC2)c(=O)n4C)cn1 [AZD0156]; conditions: max 3 µM
Summary of the method: as §1

Prexasertib = compound: COc1cccc(OCCCN)c1-c1cc(Nc2cnc(C#N)cn2)n[nH]1 [Prexasertib]; conditions: max 1 µM
Summary of the method: as §1

Doxorubicin = compound: COc1cccc2c1C(=O)c1c(O)c3c(c(O)c1C2=O)C[C@@](O)(C(=O)CO)C[C@@H]3O[C@H]1C[C@H](N)[C@H](O)[C@H](C)O1 [Doxorubicin]; conditions: max 1 µM
Summary of the method: as §1

AZD5991 = compound: Cc1c2c(nn1C)CSCc1cc(n(C)n1)CSc1cc(c3ccccc3c1)OCCCc1c(C(=O)O)n(C)c3c-2c(Cl)ccc13 [AZD5991]; conditions: max 1 µM
Summary of the method: as §1

Selumetinib = compound: Cn1cnc2c(F)c(Nc3ccc(Br)cc3Cl)c(C(=O)NOCCO)cc21 [Selumetinib]
Summary of the method: as §1

AZD7648 = compound: Cc1cc2ncnn2cc1Nc1ncc2c(n1)n(C1CCOCC1)c(=O)n2C [AZD7648]; conditions: max 10 µM
Summary of the method: as §1

AZD8186 = compound: C[C@@H](Nc1cc(F)cc(F)c1)c1cc(C(=O)N(C)C)cc2c(=O)cc(N3CCOCC3)oc12 [AZD8186]
Summary of the method: as §1

AZD4320 = compound: CN(CC[C@H](CSC1=CC=CC=C1)NC2=C(C=C(C=C2)S(=O)(=O)NC(=O)C3=CC=C(C=C3)N4CCC(CC4)[C@H](C5=CC=CC=C5C6=CC=C(C=C6)Cl)O)S(=O)(=O)C(F)(F)F)CCO [AZD4320]; conditions: max 1 µM
Summary of the method: as §1

Venetoclax = compound: CC1(C)CCC(CN2CCN(c3ccc(C(=O)NS(=O)(=O)c4ccc(NCC5CCOCC5)c([N+](=O)[O-])c4)c(Oc4cnc5[nH]ccc5c4)c3)CC2)=C(c2ccc(Cl)cc2)C1 [Venetoclax]; conditions: max 1 µM
Summary of the method: as §1

AZD6738 = compound: C[C@@H]1COCCN1C2=NC(=NC(=C2)C3(CC3)[S@](=N)(=O)C)C4=C5C=CNC5=NC=C4 [AZD6738]; conditions: max 10 µM
Summary of the method: as §1

AZD2811 = compound: CCN(CCO)CCCOc1ccc2c(Nc3cc(CC(=O)Nc4cccc(F)c4)[nH]n3)ncnc2c1 [AZD2811]; conditions: max 1 µM
Summary of the method: as §1

Olaparib = compound: O=C(c1cc(Cc2n[nH]c(=O)c3ccccc23)ccc1F)N1CCN(C(=O)C2CC2)CC1 [Olaparib]; conditions: max 10 µM
Summary of the method: as §1

SG3199 = compound: CC1=CN2[C@@H](C1)C=NC3=CC(=C(C=C3C2=O)OC)OCCCCCOC4=C(C=C5C(=C4)N=C[C@@H]6CC(=CN6C5=O)C)OC [SG3199]; conditions: max 0.001 µM
Summary of the method: as §1

SN-38 = compound: CCc1c2c(nc3ccc(O)cc13)-c1cc3c(c(=O)n1C2)COC(=O)[C@]3(O)CC [SN-38]; conditions: max 0.3 µM
Summary of the method: as §1

Palbociclib = compound: CC(=O)c1c(C)c2cnc(Nc3ccc(N4CCNCC4)cn3)nc2n(C2CCCC2)c1=O [Palbociclib]; conditions: max 10 µM
Summary of the method: as §1

Savolitinib = compound: C[C@@H](c1ccc2nccn2c1)n1nnc2ncc(-c3cnn(C)c3)nc21 [Savolitinib]; conditions: max 1 µM
Summary of the method: as §1

Etoposide = compound: COc1cc([C@@H]2c3cc4c(cc3[C@@H](O[C@@H]3O[C@@H]5CO[C@@H](C)O[C@H]5[C@H](O)[C@H]3O)[C@H]3COC(=O)[C@H]23)OCO4)cc(OC)c1O [Etoposide]; conditions: max 10 µM
Summary of the method: as §1

[1] = compound: O=C(Nc1ccc2[nH]nc(-c3ccncc3)c2c1)[C@@H]1CCN(CC(=O)N2CCN(c3ccc(-c4ncccn4)cc3)CC2)C1; conditions: max 5 µM
Summary of the method: as §1

Trametinib = compound: CC(=O)Nc1cccc(-n2c(=O)n(C3CC3)c(=O)c3c(Nc4ccc(I)cc4F)n(C)c(=O)c(C)c32)c1 [Trametinib]; conditions: max 1 µM
Summary of the method: as §1

Lapatinib = compound: CS(=O)(=O)CCNCc1ccc(-c2ccc3ncnc(Nc4ccc(OCc5cccc(F)c5)c(Cl)c4)c3c2)o1 [Lapatinib]; conditions: max 10 µM
Summary of the method: as §1

SRA737 = compound: N#Cc1cnc(Nc2cc(NC[C@H]3CNCCO3)c(C(F)(F)F)cn2)cn1 [SRA737]; conditions: max 10 µM
Summary of the method: as §1

Dasatinib = compound: CC1=C(C(=CC=C1)Cl)NC(=O)C2=CN=C(S2)NC3=CC(=NC(=N3)C)N4CCN(CC4)CCO [Dasatinib]; conditions: max 2 µM
Summary of the method: as §1

Crizotinib = compound: C[C@@H](Oc1cc(-c2cnn(C3CCNCC3)c2)cnc1N)c1c(Cl)ccc(F)c1Cl [Crizotinib]; conditions: max 10 µM
Summary of the method: as §1

Taselisib = compound: Cc1nc(-c2cn3c(n2)-c2ccc(-c4cnn(C(C)(C)C(N)=O)c4)cc2OCC3)n(C(C)C)n1 [Taselisib]; conditions: max 10 µM
Summary of the method: as §1

Gemcitabine = compound: Nc1ccn([C@@H]2O[C@H](CO)[C@@H](O)C2(F)F)c(=O)n1 [Gemcitabine]; conditions: max 0.3 µM
Summary of the method: as §1

Alisertib = compound: COc1cc(Nc2ncc3c(n2)-c2ccc(Cl)cc2C(c2c(F)cccc2OC)=NC3)ccc1C(=O)O [Alisertib]; conditions: max 10 µM
Summary of the method: as §1

AZD1390 = compound: CC(C)n1c(=O)n(C)c2cnc3cc(F)c(-c4ccc(OCCCN5CCCCC5)nc4)cc3c21 [AZD1390]; conditions: max 0.3 µM
Summary of the method: as §1

Carboplatin = compound: C1CC(C1)(C(=O)[O-])C(=O)[O-].N.N.[Pt+2] [Carboplatin]; conditions: max 10 µM
Summary of the method: as §1

Gefitinib = compound: COc1cc2ncnc(Nc3ccc(F)c(Cl)c3)c2cc1OCCCN1CCOCC1 [Gefitinib]; conditions: max 10 µM
Summary of the method: as §1

5-Fluorouracil = compound: O=c1[nH]cc(F)c(=O)[nH]1 [5-Fluorouracil]; conditions: max 20 µM
Summary of the method: as §1

MK-2206 = compound: NC1(c2ccc(-c3nc4ccn5c(=O)[nH]nc5c4cc3-c3ccccc3)cc2)CCC1 [MK-2206]; conditions: max 10 µM
Summary of the method: as §1

Paclitaxel = compound: CC(=O)O[C@H]1C(=O)[C@@]2(C)[C@H]([C@H](OC(=O)c3ccccc3)[C@]3(O)C[C@H](OC(=O)[C@H](O)[C@@H](NC(=O)c4ccccc4)c4ccccc4)C(C)=C1C3(C)C)[C@]1(OC(C)=O)CO[C@@H]1C[C@@H]2O [Paclitaxel]; conditions: max 3 µM
Summary of the method: as §1

AZD5363 = compound: C1CN(CCC1(C(=O)N[C@@H](CCO)C2=CC=C(C=C2)Cl)N)C3=NC=NC4=C3C=CN4 [AZD5363]; conditions: max 10 µM
Summary of the method: as §1

AZD5153 = compound: COc1nnc2ccc(N3CCC(c4ccc(OCCN5CCN(C)C(=O)[C@H]5C)cc4)CC3)nn12 [AZD5153]; conditions: max 1 µM
Summary of the method: as §1

Cell Line | IC50, cell viability 72 h (AZD1775) | IC50, cell viability 72 h (Capivasertib) | IC50, cell viability 72 h (AZD0156) | IC50, cell viability 72 h (Prexasertib) | IC50, cell viability 72 h (Doxorubicin) | IC50, cell viability 72 h (AZD5991) | IC50, cell viability 72 h (Selumetinib; max 3 µM) | IC50, cell viability 72 h (AZD7648) | IC50, cell viability 72 h (AZD8186; max 3 µM) | IC50, cell viability 72 h (AZD4320) | IC50, cell viability 72 h (Venetoclax) | IC50, cell viability 72 h (AZD6738) | IC50, cell viability 72 h (AZD2811) | IC50, cell viability 72 h (Olaparib) | IC50, cell viability 72 h (SG3199) | IC50, cell viability 72 h (SN-38) | IC50, cell viability 72 h (Palbociclib) | IC50, cell viability 72 h (Savolitinib) | IC50, cell viability 72 h (Etoposide) | IC50, cell viability 72 h [1] | IC50, cell viability 72 h (Trametinib) | IC50, cell viability 72 h (Lapatinib) | IC50, cell viability 72 h (SRA737) | IC50, cell viability 72 h (Dasatinib) | IC50, cell viability 72 h (Selumetinib; max 10 µM) | IC50, cell viability 72 h (Crizotinib) | IC50, cell viability 72 h (Taselisib) | IC50, cell viability 72 h (Gemcitabine) | IC50, cell viability 72 h (Alisertib) | IC50, cell viability 72 h (AZD1390) | IC50, cell viability 72 h (AZD8186; max 10 µM) | IC50, cell viability 72 h (Carboplatin) | IC50, cell viability 72 h (Gefitinib) | IC50, cell viability 72 h (5-Fluorouracil) | IC50, cell viability 72 h (MK-2206) | IC50, cell viability 72 h (Paclitaxel) | IC50, cell viability 72 h (AZD5363) | IC50, cell viability 72 h (AZD5153)
SIMA (Neuroblastoma) | 211 nM | > 3000 nM | > 3000 nM | 7.67 nM | 706 nM | > 1000 nM | > 3000 nM | > 10000 nM | > 3000 nM | 299 nM | > 1000 nM | 2350 nM | > 1000 nM | > 10000 nM | > 1 nM | 3.66 nM | – | – | – | – | – | – | – | – | – | – | – | – | – | – | – | – | – | – | – | – | – | –
SU-DHL-6 (B-Cell Non-Hodgkin's Lymphoma) | 676 nM | – | 2970 nM | > 1000 nM | 181 nM | 32.6 nM | – | > 10000 nM | – | 107 nM | 244 nM | > 10000 nM | > 1000 nM | > 10000 nM | > 1 nM | 8.04 nM | 3570 nM | > 1000 nM | 1260 nM | > 5000 nM | > 1000 nM | 4980 nM | > 10000 nM | 17.8 nM | > 10000 nM | 2840 nM | 14.4 nM | 36.4 nM | 1090 nM | > 300 nM | 228 nM | > 10000 nM | > 10000 nM | > 20000 nM | 569 nM | 4.04 nM | 301 nM | 48.9 nM
SUP-T1 (T-Lymphoblastic Leukemia) | 272 nM | – | > 3000 nM | 21.8 nM | 145 nM | > 1000 nM | – | > 10000 nM | – | > 1000 nM | > 1000 nM | 3280 nM | > 1000 nM | > 10000 nM | > 1 nM | 3.19 nM | 2360 nM | > 1000 nM | 805 nM | > 5000 nM | > 1000 nM | > 10000 nM | 7670 nM | > 2000 nM | > 10000 nM | 2730 nM | 1730 nM | 16.7 nM | 1590 nM | > 300 nM | > 10000 nM | > 10000 nM | > 10000 nM | > 20000 nM | 7710 nM | 13.6 nM | 3600 nM | 117 nM
SW1116 (Colorectal Carcinoma) | > 3000 nM | – | > 3000 nM | 824 nM | > 1000 nM | > 1000 nM | – | > 10000 nM | – | > 1000 nM | > 1000 nM | > 10000 nM | > 1000 nM | > 10000 nM | > 1 nM | > 300 nM | > 10000 nM | > 1000 nM | > 10000 nM | > 5000 nM | 242 nM | > 10000 nM | > 10000 nM | > 2000 nM | > 10000 nM | > 10000 nM | > 10000 nM | > 300 nM | > 10000 nM | > 300 nM | > 10000 nM | > 10000 nM | > 10000 nM | > 20000 nM | > 10000 nM | 2740 nM | > 10000 nM | > 1000 nM
SW1271 (Small Cell Lung Carcinoma) | 1970 nM | – | > 3000 nM | 137 nM | > 1000 nM | > 1000 nM | – | > 10000 nM | – | > 1000 nM | > 1000 nM | > 10000 nM | > 1000 nM | > 10000 nM | > 1 nM | 143 nM | > 10000 nM | > 1000 nM | > 10000 nM | > 5000 nM | 614 nM | > 10000 nM | > 10000 nM | > 2000 nM | > 10000 nM | > 10000 nM | > 10000 nM | > 300 nM | > 10000 nM | > 300 nM | > 10000 nM | > 10000 nM | > 10000 nM | > 20000 nM | > 10000 nM | 630 nM | > 10000 nM | 947 nM
